Here are results for one compound from patent publication US20170202792A1, “METHOD FOR TREATING TAU-ASSOCIATED DISEASES” (NATIONAL TAIWAN NORMAL UNIVERSITY, priority 2016, published 2017).

This assay deals with SH-SY5Y tauRD-DsRed cells. The assay can be described thus: Neurite outgrowth in SH-SY5Y tauRD-DsRed cells (TUBB3 staining). As to conditions: 10 μM, pre-treated 8 hours, doxycycline 7 days; untreated = 100%. The assay is classed as cell-based, human. The method, then:
We used SH-SY5Y human cells expressing a DsRed-tagged proaggregation mutant (ΔK280) of the C-terminal repeat domain of tau (tauRD-Gln^244-Glu^372 of the longest tau^441 isoform). The recombinant tauRD-DsRed construct was under the control of a tetracycline-regulated, hybrid human cytomegalovirus (CMV)/TetO2 promoter that can be induced by adding doxycycline. The cell lines were grown in medium containing blasticidin (5 μg/mL) and hygromycin (100 μg/mL).
SH-SY5Y tauRD-DsRed cells were seeded in 6-well plates (1×10^5/well) in a medium containing all-trans retinoic acid (10 μM, Sigma). After 48 hours of incubation, cells were pre-treated with 10 μM Congo red and 10 μM compound (I) for 8 hours; after which, tauRD-DsRed expression was induced with 1μg/mL doxycycline for 7 days. The cells were then fixed in 4% paraformaldehyde, permeabilized with 0.1% Triton X-100, blocked in 3% BSA, and then stained with the primary antibody anti-TUBB3 (against neuronal Class III β-tubulin) (1:1000; Covance) and with a secondary anti-rabbit Alexa Fluor® 555 antibody (1:500; Molecular Probes). Nuclei were counterstained with 4′,6-diamidino-2-phenylindole (DAPI). The total outgrowth in the untreated, Congo red-treated, and compound (I)-treated cells was assessed using MetaXpress image acquisition and analysis software.

With `Nc1c(/N=N/c2ccc(-c3ccc(/N=N/c4cc(S(=O)(=O)O)c5ccccc5c4N)cc3)cc2)cc(S(=O)(=O)O)c2ccccc12` [Congo red, reference compound], the “neurite growth relative to untreated cells” value was found to be 110%.
